In patent EP4678638A1, “NEW E3 UBIQUITIN LIGASE LIGAND, PROTEIN DEGRADATION AGENT AND USE THEREOF” (priority 2023, dated 2024):

Legend:
IRAK4 = target: T1, IRAK4 (Homo sapiens, UniProt Q9NWZ3); assay: Western blot degradation of IRAK4 (hPBMC); format: cell-based; details: Table D1
T1 construct: evaluate the effects of the compounds of the present disclosure on the expression of target proteins in cells; endogenous in cells; host or cells: hPBMC
T1 sequence (Q9NWZ3 1-460): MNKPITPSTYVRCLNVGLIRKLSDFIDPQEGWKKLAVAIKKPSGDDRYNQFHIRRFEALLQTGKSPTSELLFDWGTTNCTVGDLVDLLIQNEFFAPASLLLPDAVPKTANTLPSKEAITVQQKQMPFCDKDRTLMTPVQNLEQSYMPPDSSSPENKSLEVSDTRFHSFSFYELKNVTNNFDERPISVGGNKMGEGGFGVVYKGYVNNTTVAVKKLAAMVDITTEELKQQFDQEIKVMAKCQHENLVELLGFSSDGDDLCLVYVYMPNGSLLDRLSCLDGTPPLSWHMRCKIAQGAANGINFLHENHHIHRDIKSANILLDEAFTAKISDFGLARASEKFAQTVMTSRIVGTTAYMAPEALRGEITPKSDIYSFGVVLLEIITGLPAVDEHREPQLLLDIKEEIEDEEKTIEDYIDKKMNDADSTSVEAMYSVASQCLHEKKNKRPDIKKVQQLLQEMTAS
Procedure: Conventional Western blot assay was performed to evaluate the effects of the compounds of the present disclosure on the expression of target proteins in cells.
(1) Cell Seeding and Protein Harvesting: The selected cells were processed according to the cell seeding procedure and protein harvesting procedure in Table III-2. Table III-2 Cell Seeding and Protein Harvesting Procedures
(2) To the collected supernatant, 5X SDS sample loading buffer was added, followed by denaturation at 95°C for 5 minutes. The denatured samples were then separated by SDS-PAGE electrophoresis on a polyacrylamide gel. Proteins were transferred to a nitrocellulose membrane (0.45 µm NC membrane), blocked with blocking buffer at room temperature for 1 hour, and subjected to antibody incubation and development procedures according to the antibody manufacturer's instructions (Cell Signaling Technology).
Half-Maximal Degradation Concentration value (the drug concentration required for degrading proteins by 50%, abbreviated as DC50) reads method: comparing the grayscale values of Western blot bands from drug-treated samples with those from blank DMSO-treated controls, and identifying the drug concentration range at which the grayscale value is half that of the DMSO-treated control bands.
DC50 values can be calculated using ImageJ software to measure grayscale values of Western blot bands from drug-treated samples. The concentration-response curve is fitted to estimate the drug concentration corresponding to half the grayscale value.
Target protein remaining (%) refers to the percentage of target protein remaining in hPBMC cells after treatment with protein degrader compounds.
Calculation method for target protein remaining (%): Use ImageJ software to measure grayscale values of Western blot bands from drug (protein degrader)-treated samples. The grayscale value of drug-treated bands is divided by that of internal control protein bands, and the resulting quotient is normalized to obtain the relative percentage of remaining target protein after protein degrader treatment.
Target protein degradation rate (%) = 100% - target protein remaining (%).

MCF7 = assay: CCK-8 proliferation, MCF7 (MCF-7); format: cell-based; details: Homo sapiens, MCF7; CCK-8; read-out: Inhibitory activity (IC50) on tumor cell proliferation, MCF7
Procedure: (§1) The tumor cells used herein were cultured in a cell culture medium listed in table A1 at 37°C in an incubator with 5% CO2. Prior to experimentation, all cell lines used were correctly identified by STR profiling, and tested negative for mycoplasma contamination using a mycoplasma detection kit through routine screenings. Table A1. Tumor cells and cell culture medium used in the present disclosure
(§2) IC50 values of the compounds of the present disclosure (including the compounds in Table 1, and compounds of examples) were measured using the Meilun Cell Counting Kit-8 kit from Dalian Meilun Biotech Co., Ltd. Assay details are as follows: tumor cells were seeded in a 96-well plate at a density listed in Table A2. After 24h, 100 µL of the inoculated cells were treated with 0.5µL of the compounds of the present disclosure (including the compounds in Tables 1 and 2, and compounds of examples) at 10 different successively decreasing concentrations (starting at the highest concentration of 10µM; 5-fold serial dilutions). After the cells were treated with the compounds of the present disclosure for a period of time, the cell viability detection reagent was added to the culture medium for cell viability assessment according to the instructions provided with the CCK-8 kit. […] The growth inhibition of the compounds of the present disclosure on cells was plotted by Prism Graphpad software, and the IC50 values of the compounds of the present disclosure were calculated therefrom. […] Seeding protocol and treatment time for tumor cells

MM.1S = assay: CCK-8 proliferation, MM.1S; format: cell-based; details: Homo sapiens, MM1.S; CCK-8; 72 hours; read-out: Inhibitory activity (IC50) on tumor cell proliferation, MM1S
Procedure: as §1, §2

H1975 = assay: CCK-8 proliferation, NCI-H1975 (H1975); format: cell-based, Human; details: Homo sapiens, NCI-H1975; CCK-8; 96 hours; read-out: Inhibitory activity (IC50) on tumor cell proliferation, H1975
Summary of the method: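 CCK-8 viability readout; IC50 from growth-inhibition curve fitting. Cells plated, dosed 24h later with a 10-point series, top 10µM, 5-fold steps. Culture at 37°C, 5% CO2.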

CCRF-CEM = assay: CCK-8 proliferation, CCRF-CEM; format: cell-based, Human; details: Homo sapiens, CCRF-CEM; CCK-8; 96 hours; read-out: Inhibitory activity (IC50) on tumor cell proliferation, CCRF-CEM
Procedure: as §1, §2

[1] = target: T2, human Cereblon WT GST-tagged protein (Homo sapiens, UniProt Q96SW2); assay: CRBN binding, HTRF (CEREBLON BINDING kit); details: Table II-2, CRBN binding screening, HTRF
T2 construct: purchased CISBIO 64BDCRBNPEH
Summary of the method: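 Competitive HTRF: GST-tagged human WT Cereblon mixed with compound, Thalidomide-Re tracer and GST Eu antibody, incubated 3 h at room temperature. Signals read at 620 and 665 nm.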

EGFR = assay: Western blot degradation of EGFR (H1975 Cell); format: cell-based, Human; details: Table D2
Summary of the method: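 Degradation is assessed by immunoblotting lysates of treated cells. Target bands are quantified by grayscale and normalised to an internal control, so degradation rate equals 100% minus % remaining.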

T2 sequence (Q96SW2 whole entry): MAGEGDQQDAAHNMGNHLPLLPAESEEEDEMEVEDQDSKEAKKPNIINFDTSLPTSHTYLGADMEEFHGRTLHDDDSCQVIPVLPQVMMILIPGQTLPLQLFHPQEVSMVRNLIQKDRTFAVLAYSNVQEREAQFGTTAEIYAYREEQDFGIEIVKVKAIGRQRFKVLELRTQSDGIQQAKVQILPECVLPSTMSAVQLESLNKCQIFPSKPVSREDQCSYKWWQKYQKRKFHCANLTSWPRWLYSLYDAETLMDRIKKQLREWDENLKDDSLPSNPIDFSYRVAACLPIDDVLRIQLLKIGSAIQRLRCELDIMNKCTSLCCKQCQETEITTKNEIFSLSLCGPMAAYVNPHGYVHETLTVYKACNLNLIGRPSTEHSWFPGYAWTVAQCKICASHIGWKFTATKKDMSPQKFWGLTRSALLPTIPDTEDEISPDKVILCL

| Compound | Degradation of substrate protein IRAK4 (substrate protein remaining %) (IRAK4) | IC50 (H1975) [nM] | Degradation of substrate protein EGFR (substrate protein remaining %) (EGFR) | also measured |
| --- | --- | --- | --- | --- |
| COc1cc2nn(C3CCN(Cc4cccnc4C4CCC(=O)NC4=O)CC3)cc2cc1NC(=O)c1cccc(C(F)(F)F)n1 (stereo not drawn) [GT-07550, N-(2-(1-((2-(2,6-dioxopiperidin-3-yl)pyridin-3-yl)methyl)piperidin-4-yl)-6-methoxy-2H-indazol-5-yl)-6-(trifluoromethyl)picolinamide] | A (A is defined as 0% ≤ substrate protein remaining % ≤ 80%) | – | – | – |
| COc1cc2nn(C3CCN(Cc4ccc(N5CCC(=O)NC5=O)nc4)CC3)cc2cc1NC(=O)c1cccc(C(F)(F)F)c1 [GT-04879, N-(2-(1-((6-(2,4-dioxotetrahydropyrimidin-1(2H)-yl)pyridin-3-yl)methyl)piperidin-4-yl)-6-methoxy-2H-indazol-5-yl)-3-(trifluoromethyl)benzamide] | A (A is defined as 0% ≤ substrate protein remaining % ≤ 80%) | – | – | – |
| COc1cc2nn(C3CCN(Cc4ccc(N5CCC(=O)NC5=O)cc4)CC3)cc2cc1NC(=O)c1cccc(C(F)(F)F)c1 [GT-04752, N-(2-(1-(4-(2,4-dioxotetrahydropyrimidin-1(2H)-yl)benzyl)piperidin-4-yl)-6-methoxy-2H-indazol-5-yl)-3-(trifluoromethyl)benzamide] | A (A is defined as 0% ≤ substrate protein remaining % ≤ 80%) | – | – | – |
| Cc1nc2c(F)cc(-c3nc(Nc4ccc(N5CCC(N6CCN(Cc7cncc(N8CCC(=O)NC8=O)c7)CC6)CC5)cn4)ncc3F)cc2n1C(C)C [GT-07488, 1-(5-((4-(1-(6-((5-fluoro-4-(4-fluoro-1-isopropyl-2-methyl-1H-benzo[d]imidazol-6-yl)pyrimidin-2-yl)amino)pyridin-3-yl)piperidin-4-yl)piperazin-1-yl)methyl)pyridin-3-yl)dihydropyrimidine-2,4(1H,3H)-dione] | – | 100 to 500 | – | IC50 (MCF7): 50 to 100 nM; IC50 (MM.1S): 50 to 100 nM; IC50 (CCRF-CEM): 100 to 500 nM; inhibition at 0.5 µM ([1]; at 0.5µM, read-out: Inhibition rate (%) at 0.5µM): 53 to 60%; inhibition at 2 µM ([1]; at 2 µM, read-out: Inhibition rate (%) at 2 µM): 80 to 100% |
| O=C1CCC(Nc2cccc(CN3C[C@@H]4C[C@H]3CN4c3ccc(-c4cc(F)c5c(c4)C(=O)N(C(C(=O)Nc4nccs4)c4ncn6c4CCC6)C5)cc3)c2)C(=O)N1 (stereo partly drawn) [GT-05118, 2-(6,7-dihydro-5H-pyrrolo[1,2-c]imidazol-1-yl)-2-(6-(4-((1S,4S)-5-(3-((2,6-dioxopiperidin-3-yl)amino)benzyl)-2,5-diazabicyclo[2.2.1]heptan-2-yl)phenyl)-4-fluoro-1-oxoisoindolin-2-yl)-N-(thiazol-2-yl)acetamide] | – | 50 to 100 | A (A is defined as 0% ≤ substrate protein remaining % ≤ 80%) | – |
| O=C1CCN(c2ccc(CN3CCC(N4CCN(c5ccc(-c6cc(F)c7c(c6)C(=O)N(C(C(=O)Nc6nccs6)c6ncn8c6CCC8)C7)cc5)CC4)CC3)nc2)C(=O)N1 (stereo not drawn) [GT-06329, 2-(6,7-dihydro-5H-pyrrolo[1,2-c]imidazol-1-yl)-2-(6-(4-(4-(1-((5-(2,4-dioxotetrahydropyrimidin-1(2H)-yl)pyridin-2-yl)methyl)piperidin-4-yl)piperazin-1-yl)phenyl)-4-fluoro-1-oxoisoindolin-2-yl)-N-(thiazol-2-yl)acetamide] | – | 1 to 10 | A (A is defined as 0% ≤ substrate protein remaining % ≤ 80%) | – |
| O=C1CCC(c2cncc(CN3C[C@H]4C[C@@H]3CN4c3ccc(-c4cc(F)c5c(c4)C(=O)N(C(C(=O)Nc4nccs4)c4ncn6c4CCC6)C5)cc3)c2)C(=O)N1 (stereo partly drawn) [GT-07391, 2-(6,7-dihydro-5H-pyrrolo[1,2-c]imidazol-1-yl)-2-(6-(4-((1R,4R)-5-((5-(2,6-dioxopiperidin-3-yl)pyridin-3-yl)methyl)-2,5-diazabicyclo[2.2.1]heptan-2-yl)phenyl)-4-fluoro-1-oxoisoindolin-2-yl)-N-(thiazol-2-yl)acetamide] | – | 1 to 10 | A (A is defined as 0% ≤ substrate protein remaining % ≤ 80%) | – |
| O=C1CCN(c2ccc(CN3C[C@H]4C[C@@H]3CN4c3ccc(-c4cc(F)c5c(c4)C(=O)N(C(C(=O)Nc4nccs4)c4ncn6c4CCC6)C5)cc3)cc2)C(=O)N1 (stereo partly drawn) [GT-06177, 2-(6,7-dihydro-5H-pyrrolo[1,2-c]imidazol-1-yl)-2-(6-(4-((1R,4R)-5-(4-(2,4-dioxotetrahydropyrimidin-1(2H)-yl)benzyl)-2,5-diazabicyclo[2.2.1]heptan-2-yl)phenyl)-4-fluoro-1-oxoisoindolin-2-yl)-N-(thiazol-2-yl)acetamide] | – | 1 to 10 | A (A is defined as 0% ≤ substrate protein remaining % ≤ 80%) | – |
| O=C1CCC(c2cc(CN3C[C@H]4C[C@@H]3CN4c3ccc(-c4cc(F)c5c(c4)C(=O)N(C(C(=O)Nc4nccs4)c4ncn6c4CCC6)C5)cc3)ccn2)C(=O)N1 (stereo partly drawn) [GT-07390, 2-(6,7-dihydro-5H-pyrrolo[1,2-c]imidazol-1-yl)-2-(6-(4-((1R,4R)-5-((2-(2,6-dioxopiperidin-3-yl)pyridin-4-yl)methyl)-2,5-diazabicyclo[2.2.1]heptan-2-yl)phenyl)-4-fluoro-1-oxoisoindolin-2-yl)-N-(thiazol-2-yl)acetamide] | – | 1 to 10 | A (A is defined as 0% ≤ substrate protein remaining % ≤ 80%) | – |
| O=C1CCN(c2cncc(CN3C[C@H]4C[C@@H]3CN4c3ccc(-c4cc(F)c5c(c4)C(=O)N(C(C(=O)Nc4nccs4)c4ncn6c4CCC6)C5)cc3)c2)C(=O)N1 (stereo partly drawn) [GT-07388, 2-(6,7-dihydro-5H-pyrrolo[1,2-c]imidazol-1-yl)-2-(6-(4-((1R,4R)-5-((5-(2,4-dioxotetrahydropyrimidin-1(2H)-yl)pyridin-3-yl)methyl)-2,5-diazabicyclo[2.2.1]heptan-2-yl)phenyl)-4-fluoro-1-oxoisoindolin-2-yl)-N-(thiazol-2-yl)acetamide] | – | 1 to 10 | A (A is defined as 0% ≤ substrate protein remaining % ≤ 80%) | – |
